From paper PMC9181915, “Synthesis and Anti-Neuroinflammatory Activity of 1,7-diphenyl-1,4-heptadien-3-ones in LPS-Stimulated BV2 Microglia Via Inhibiting NF-κB/MAPK Signaling Pathways” (Molecules, 2022)

Tests used:
[1] = MTT cell viability assay in BV2 microglia cells; type: cell-based; details: mouse, mean ± SD, n = 3
Description: (§1) The BV2 microglial cells were purchased from the China Center for Type Culture Collection, CCTCC (Wuhan, Hubei). BV2 microglia cells were incubated in DMEM media supplemented with 10% (v/v) FBS, 100 U/mL penicillin G and […] streptomycin at 37 °C with 5% CO2.
Cell viability assays were evaluated using a 3-(4,5-dimethylthiazol-2-yl)-2,5-diphenyltetrazolium bromide (MTT) assay. BV2 microglia cells were seeded in 96-well plates at a density of 1.6 × 10^5 cells/well in complete medium and incubated for 24 h. Then, the culture medium was sucked and discarded, and sterile PBS was added for washing, and then PBS was removed. Then the cells were treated with different concentrations of target compounds for 24 h. An amount equal to 100 μL of MTT was added to each well and the cells were further incubated for 2–4 h. An amount equal to 150 μL of DMSO was added into a 96-well plate and vibrated with micro-oscillator for 10 min. The optical density (A) was measured at […] on a microplate reader. The inhibitory rate of the various concentrations of agents in BV2 cells was calculated using the following formula:Cell viability (%) = [A492 (sample) − A492 (blank)]/[A492 (control) − A492 (blank)] × 100%

[2] = In vivo pharmacokinetic study in rats; parameters: species or system Sprague–Dawley male rats; details: for AUC(0-inf) / AUC(0-t) / Cmax / half-life / MRT last / MRT inf: male, Sprague-Dawley, rat plasma, mean ± SD, n = 4; for MRT last: read-out: MRT (0-t) (converted); for MRT inf: read-out: MRT (0-∞) (converted)
Description: After a single intravenous dose of 20 mg/kg, 0.5 mL of blood was obtained from the fossa orbitalis veniplex of rats at 5, 10, 20, 30, 45, 60, 120, 180 and 240 min. HPLC was used to determine the concentration of each compound in plasma and the DAS software was used for the noncompartmental pharmacokinetic analysis of the plasma concentration–time data.
Sprague–Dawley male rats, 200–240 g, were housed in cages in an airconditioned room with light dark cycle of 12 h before the experiment started. The animals were fasted for 12 h with water ad libitum. […] The administration volume was 6 mL per kg of body weight. The compounds were dissolved in PEG400 (10% of the administration volume) and water (90% of the administration volume) and sonicated for 30 min. After tail vein injection administration at a dose of 20 mg/kg, 0.5 mL blood was obtained from fossa orbitalis veniplex of rats at 5, 10, 20, 30, 45, 60, 120, 180 and 240 min. Whole blood samples were collected in heparinized tubes and the plasma was immediately centrifuged (10,000 rpm, 10 min, 4 °C) and then stored at −20 °C until analysis. The calibration standards and the plasma samples were extracted by protein precipitation using methanol.

p38 = experiment: LPS-induced p38 phosphorylation in BV2 cells (Western blot); type: cell-based; details: 3 μM, 1 h pretreatment, LPS 1 μg/mL 24 h
Description: (§2) CU-19, CU-21 and LPS were configured with DMEM medium (2% FBS). The cells were collected and washed three times with ice-cold PBS. The lysate (containing 1% protease inhibitor and phosphatase inhibitor) was added to the collected cells for suspension, and the cells were lysed by ultrasonic crusher. Then the cell lysates were centrifuged (14,000 rpm, 10 min, 4 °C) […] and collect the supernatant. Aliquots of the lysates were separated on 10% sodium dodecyl sulphate (SDS)-polyacrylamide gel electrophoresis (PAGE) and then electro blotted onto a polyvinylidene difluoride (PVDF) membrane. The blots were blocked with 5% (w/v) nonfat dry milk for 2 h at room temperature, followed by incubation with specific primary antibodies at 4 °C overnight. Blots were washed with PBST and incubated with secondary antibody for 2 h, after which an ECL reagent was used for chemiluminescent detection.

ERK = experiment: LPS-induced ERK phosphorylation in BV2 cells (Western blot); type: cell-based; details: 3 μM, 1 h pretreatment, LPS 1 μg/mL 24 h
Description: as §2

JNK = experiment: LPS-induced JNK phosphorylation in BV2 cells (Western blot); type: cell-based; details: 3 μM, 1 h pretreatment, LPS 1 μg/mL 24 h
Description: as §2

[3] = tested on: LPS-induced NO release in BV2 cells; experiment: Inhibition of LPS-induced NO release in BV2 cells; type: cell-based; details: Mus musculus, BV-2; for inhibition at 3 µM: pretreated 1 h, then LPS 1 μg/mL for 24 h, BV2 cells; for IC50: BV2 cells, 0.3, 1.0, 3.0 μM, LPS 1 μg/mL 24 h, mean ± SD, n = 3, read-out: IC50 to inhibit LPS-induced NO release
Description: as §1
Nitrite, a stable product of nitric oxide, was used to assess NO production. To study the effects of the compounds on NO production, BV2 microglia cells in the logarithmic phase were plated at 1 × 10^5 cells/well in a 24-well microplate and incubated in DMEM medium (10% FBS) overnight. The cells were pretreated with various concentrations of the test compounds for 1 h and further co-cultured with 1 μg/mL LPS and 5% CO2 for 24 h in a 37 °C incubator; then, the supernatant was taken and stored at −20 °C for NO detection. The target compound and LPS were configured with DMEM medium (2% FBS). The determination of NO was carried out according to the instructions. Unpretreated and unstimulated BV2 microglia cells were conducted as the blank control group. The absorbance value was determined at 540 nm, and the corresponding NO content was calculated by using the standard curve. The NO inhibitory rate of the various concentrations of agents in BV2 cells was calculated as per the following formula:Inhibition rate (%) = (LPS(NO concentration) − sample(NO concentration))/(LPS(NO concentration) − negative control(NO concentration)) × 100%.

PGE-2 = experiment: LPS-induced PGE-2 release in BV2 cells (ELISA); type: cell-based, mouse; details: 3 µM, 1 h pretreatment, LPS 1 μg/mL 24 h, vs. LPS alone
Description: (§3) BV2 microglia cells were seeded at 1 × 10^5 cells/well in a 24-well microplate and incubated overnight. […] CU-19, CU-21 and LPS were configured with DMEM medium (2% FBS). According to the protocol of the manufacturer, supernatant was harvested at the 24th hour for the assay of IL-6, TNF-α and PGE-2 with ELISA kits (Absin Shanghai, China). Briefly, 100 μL of biotinylated antibody reagent and the culture supernatant were added to anti-mouse IL-6, TNF-α and PGE-2-precoated 96-well plates, and the plates were incubated for 2.5 h at room temperature. The plate was washed with a washing buffer and subsequently incubated with 100 μL of the streptavidin–HRP solution for 20 min at room temperature. The plate was washed and incubated with 100 μL of TMB substrate solution for 20 min at room temperature in the dark. The reaction was stopped by adding 50 μL of stop solution, and then the absorbance was measured at 450 nm by a plate reader. The average value was substituted into the standard curve to obtain the […] concentration.

IL-6 = experiment: LPS-induced IL-6 release in BV2 cells (ELISA); type: cell-based, mouse; details: 3 µM, 1 h pretreatment, LPS 1 μg/mL 24 h, vs. LPS alone
Description: as §3

TNF-α = experiment: LPS-induced TNF-α release in BV2 cells (ELISA); type: cell-based, mouse; details: 3 µM, 1 h pretreatment, LPS 1 μg/mL 24 h, vs. LPS alone
Description: as §3

COX-2 = experiment: LPS-induced COX-2 expression in BV2 cells (Western blot); type: cell-based; details: 3 μM, 1 h pretreatment, LPS 1 μg/mL 24 h
Description: as §2

iNOS = experiment: LPS-induced iNOS expression in BV2 cells (Western blot); type: cell-based; details: 3 μM, 1 h pretreatment, LPS 1 μg/mL 24 h
Description: as §2

NF-κB = experiment: LPS-induced NF-κB nuclear translocation in BV2 cells (immunofluorescence); type: cell-based; details: 3 μM with LPS, 24 h
Description: CU-19, CU-21 and LPS were configured with DMEM medium (2% FBS). After 24 h of treatment, cells were fixed with 4% paraformaldehyde for 18 min and washed three times with PBS (5 min per wash). The fixed cells were then permeabilized in […] for 15 min and washed three times with PBS (5 min per wash). Nonspecific binding sites were blocked with 5% goat serum for 30 min. These cells were then incubated with anti-NF-κB antibody at a dilution of 1:400 overnight at 4 °C. After washing with PBS three times, cells were incubated with fluorescent-conjugated secondary antibody (1:150) for 1 h, and counterstained with DAPI (1:50) at room temperature for 15 min in the dark. Cells were then washed and imaged via confocal microscopy.

[4] = single intravenous dose 20 mg/kg

Row | SMILES | viability at 24 h, 1 µM [1] [%] | viability at 24 h, 3 µM [1] [%] | viability at 24 h, 10 µM [1] [%] | inhibition at 3 µM [3] [%] | IC50 [3] [µM] | melting point [°C] | other results
1 | COc1cc(/C=C/C(=O)CC(=O)/C=C/c2ccc(O)c(OC)c2)ccc1O [CU, curcumin, reference compound] | 97.57 ± 0.05 | 95.26 ± 0.05 | 28.15 ± 0.19 | 37.4 | > 3 | – | AUC(0-inf) [2, 4]: 0.678 µg·h/mL; AUC(0-t) [2, 4]: 0.652 µg·h/mL; Cmax [2, 4]: 2.45 ± 0.132 µg/mL; half-life [2, 4]: 24.7 ± 16.9 min; MRT last [2, 4]: 14.1 min; MRT inf [2, 4]: 20.5 min; p38 phosphorylation compared to the LPS group (p38): inhibited; ERK phosphorylation compared to the LPS group (ERK): inhibited; JNK phosphorylation compared to the LPS group (JNK): inhibited
2 | COc1ccc(/C=C/C(=O)/C=C/CCc2ccccc2)cc1OC [CU-19, (1E,4E)-1-(3,4-dimethoxyphenyl)-7-phenyl-1,4-heptadien-3-one] | 96.94 ± 0.03 | 96.33 ± 0.02 | 67.91 ± 0.37 | 50.3 | 1.6 ± 0.31 | – | Inhibition of LPS-induced PGE-2 release (PGE-2): significantly inhibited; AUC(0-inf) [2, 4]: 2.22 µg·h/mL; AUC(0-t) [2, 4]: 1.77 µg·h/mL; Cmax [2, 4]: 3.33 ± 0.393 µg/mL; half-life [2, 4]: 135 ± 6.24 min; MRT last [2, 4]: 61.2 min; MRT inf [2, 4]: 127 min; Metabolites detected in plasma by HPLC ([2]; rat plasma after intravenous 20 mg/kg, chromatograms at 5, 10, 20 min (Figures S1–S9)): no obvious metabolites; Increase of T1/2 in comparison with that of CU ([2]; rat, single intravenous dose 20 mg/kg): 4.5 fold; Inhibition of LPS-induced IL-6 release (IL-6): significantly inhibited; Inhibition of LPS-induced TNF-α release (TNF-α): significantly inhibited; Inhibition of LPS-induced COX-2 expression (COX-2): significantly inhibited; p38 phosphorylation compared to the LPS group (p38): significantly decreased; Inhibition of LPS-induced iNOS expression (iNOS): significantly inhibited; ERK phosphorylation compared to the LPS group (ERK): significantly decreased; Inhibition of LPS-induced NF-κB nuclear translocation (NF-κB): able to inhibit NF-κB nuclear translocation; JNK phosphorylation compared to the LPS group (JNK): significantly decreased
3 | Cc1ccc(CC/C=C/C(=O)/C=C/c2ccccc2)cc1 [CU-22, (1E,4E)-1-phenyl-7-(p-tolyl)-1,4-heptadien-3-one] | 95.14 ± 0.05 | 88.76 ± 0.06 | 46.6 ± 0.59 | 48.2 | > 3 | 62 to 64 | –
4 | O=C(/C=C/CCc1cccc(O)c1)/C=C/c1ccccc1 [CU-24, (1E,4E)-7-(3-hydroxyphenyl)-1-phenyl-1,4-heptadien-3-one] | 103.49 ± 0.02 | 91.48 ± 0.07 | 23.17 ± 0.09 | 0 | – | 70 to 72 | –
5 | O=C(/C=C/CCc1ccc(O)cc1)/C=C/c1ccccc1 [CU-25, (1E,4E)-7-(4-hydroxyphenyl)-1-phenyl-1,4-heptadien-3-one] | 128.6 ± 0.14 | 96.93 ± 0.01 | 20.3 ± 0.59 | 0 | – | 75 to 77 | –
6 | COc1cc(CC/C=C/C(=O)/C=C/c2ccccc2)ccc1O [CU-26, (1E,4E)-7-(4-hydroxy-3-methoxyphenyl)-1-phenyl-1,4-heptadien-3-one] | 107.17 ± 0.07 | 96.83 ± 0.02 | 12.8 ± 0.14 | 37.6 | – | 72 to 74 | –
7 | O=C(/C=C/CCc1ccc(Cl)cc1)/C=C/c1ccccc1 [CU-28, (1E,4E)-7-(4-chlorophenyl)-1-phenyl-1,4-heptadien-3-one] | 95.71 ± 0.07 | 94.75 ± 0.05 | 81.65 ± 0.22 | 33.6 | – | 48 to 50 | –
